# Results taken from ChEMBL document CHEMBL5029144, “Positional Isomeric Effects on the Optical Properties, Multivalent Glycosidase Inhibition Effect, and Hypoglycemic Effect of Perylene Bisimide-deoxynojirimycin Conjugates” (J Med Chem, 2021).
# Experiments:
# Alpha-mannosidase [1] = target: T1, Alpha-mannosidase (Canavalia ensiformis, UniProt C0HJB3); experiment: Inhibition of jack bean alpha-mannosidase
# T1 sequence (C0HJB3 whole entry): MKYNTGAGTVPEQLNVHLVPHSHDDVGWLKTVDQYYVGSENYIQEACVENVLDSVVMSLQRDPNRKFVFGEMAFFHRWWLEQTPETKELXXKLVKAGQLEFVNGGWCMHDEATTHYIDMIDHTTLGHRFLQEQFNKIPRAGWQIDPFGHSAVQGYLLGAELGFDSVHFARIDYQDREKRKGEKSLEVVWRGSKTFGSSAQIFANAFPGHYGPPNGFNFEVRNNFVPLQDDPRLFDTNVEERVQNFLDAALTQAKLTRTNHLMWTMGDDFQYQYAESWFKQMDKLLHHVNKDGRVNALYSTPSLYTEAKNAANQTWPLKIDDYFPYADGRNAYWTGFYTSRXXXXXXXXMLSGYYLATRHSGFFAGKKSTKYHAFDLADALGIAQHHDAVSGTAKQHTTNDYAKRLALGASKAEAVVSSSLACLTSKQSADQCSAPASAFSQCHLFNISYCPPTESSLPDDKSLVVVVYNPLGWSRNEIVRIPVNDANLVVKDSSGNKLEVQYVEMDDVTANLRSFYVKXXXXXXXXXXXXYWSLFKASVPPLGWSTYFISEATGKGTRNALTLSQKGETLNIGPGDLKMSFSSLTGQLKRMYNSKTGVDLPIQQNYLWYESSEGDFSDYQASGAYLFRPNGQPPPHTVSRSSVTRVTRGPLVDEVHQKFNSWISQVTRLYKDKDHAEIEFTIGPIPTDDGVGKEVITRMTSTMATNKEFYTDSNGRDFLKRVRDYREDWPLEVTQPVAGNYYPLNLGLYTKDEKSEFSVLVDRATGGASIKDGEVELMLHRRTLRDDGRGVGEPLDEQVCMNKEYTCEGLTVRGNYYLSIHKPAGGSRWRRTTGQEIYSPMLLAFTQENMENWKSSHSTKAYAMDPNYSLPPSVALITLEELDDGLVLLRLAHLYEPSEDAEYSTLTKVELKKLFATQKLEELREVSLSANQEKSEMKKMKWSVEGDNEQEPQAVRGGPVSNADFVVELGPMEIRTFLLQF
# [2] = Toxicity in C57BL-6J mouse assessed as spleen pathological change at 2 mg/kg, po measured after 10 days by hematoxylin and eosin staining analysis; type: organism-based; settings: in vivo, 240 h, time 10 day
# Aspergillus niger [3] = experiment: Potency index, ratio of miglitol Kd to test compound Kd for inhibition of Aspergillus niger alpha-glucosidase
# [4] = Toxicity in C57BL-6J mouse assessed as lung pathological change at 2 mg/kg, po measured after 10 days by hematoxylin and eosin staining analysis; type: organism-based; settings: in vivo, 240 h, time 10 day
# [5] = Inhibition of Aspergillus niger alpha-glucosidase
# [6] = target: T2, Alpha-mannosidase (Canavalia ensiformis) (UniProt C0HJB3); experiment: Potency index, ratio of miglitol Kd to test compound Kd for inhibition of Jack bean alpha-mannosidase
# T2 sequence (whole entry): T1 sequence (C0HJB3 whole entry)
# [7] = Inhibition of almond beta-glucosidase; parameters: species or system Prunus dulcis
# [8] = Toxicity in C57BL-6J mouse assessed as heart pathological change at 2 mg/kg, po measured after 10 days by hematoxylin and eosin staining analysis; type: organism-based; settings: in vivo, 240 h, time 10 day
# [9] = Toxicity in C57BL-6J mouse assessed as liver pathological change at 2 mg/kg, po measured after 10 days by hematoxylin and eosin staining analysis; type: organism-based; settings: in vivo, 240 h, time 10 day
# [10] = Inhibition of Aspergillus niger alpha-glucosidase by Lineweaver-Burk plot
# Mus musculus [11] = experiment: Hypoglycemic effect in maltose treated po dosed C57BL-6J mouse assessed as reduction in postprandial blood glucose level measured upto 180 mins; type: functional, organism-based; settings: time min <=180
# Mus musculus [12] = experiment: Hypoglycemic effect in maltose treated mouse C57BL-6J assessed as reduction in postprandial blood glucose level at 1 mg/kg, po measured after 15 mins; type: functional; parameters: scale not given: the % may be the effect or the level left; settings: 0.25 h
# Coffea arabica = experiment: Potency index, ratio of miglitol Kd to test compound Kd for inhibition of Green coffee beans alpha-galactosidase
# Mus musculus [13] = experiment: Hypoglycemic effect in maltose treated mouse C57BL-6J assessed as reduction in postprandial blood glucose level at 1 mg/kg, po measured after 30 mins; type: functional; parameters: scale not given: the % may be the effect or the level left; settings: 0.5 h
# [14] = Stability of the compound in pH 2 by UV-vis spectroscopy; type: physicochemical; settings: buffer
# [15] = (§1) Inhibition of mammalian Alpha-glucosidase (unknown origin) using PNPG as substrate pretreated for 20 mins followed by substrate addition measured after 26 mins
# Homo sapiens = species on record: Homo sapiens; experiment: as §1
# [16] = Inhibition of Escherichia coli beta-galactosidase
# [17] = Stability of the compound in pH 7 by UV-vis spectroscopy; type: physicochemical; settings: buffer
# [18] = Toxicity in C57BL-6J mouse assessed as increase in body weight at 2 mg/kg, po measured upto 30 days; type: organism-based; settings: in vivo, 720 h, time <=30 day
# [19] = target: T2, Alpha-mannosidase (Canavalia ensiformis); experiment: Potency index, ratio of DNJ-1 Kd to test compound Kd for inhibition of Jack bean alpha-mannosidase
# Mus musculus [20] = experiment: Hypoglycemic effect in maltose treated mouse C57BL-6J assessed as reduction in postprandial blood glucose level at 0.5 mg/kg, po measured after 30 mins; type: functional; parameters: scale not given: the % may be the effect or the level left
# Alpha-mannosidase [21] = target: T1, Alpha-mannosidase; experiment: Inhibition of Jack bean alpha-mannosidase by Lineweaver-Burk plot
# Mus musculus [22] = experiment: Hypoglycemic effect in maltose treated mouse C57BL-6J assessed as reduction in postprandial blood glucose level at 0.5 mg/kg, po measured after 15 mins; type: functional; parameters: scale not given: the % may be the effect or the level left; settings: 0.25 h
# Mus musculus [23] = experiment: Hypoglycemic effect in maltose treated C57BL-6J mouse assessed as reduction in postprandial blood glucose level at 2 mg/kg, po measured after 30 mins; type: functional; parameters: scale not given: the % may be the effect or the level left; settings: 0.5 h
# [24] = Inhibition of Green coffee beans alpha-galactosidase by Lineweaver-Burk plot; parameters: species or system Coffea arabica
# [25] = Inhibition of green coffee beans alpha-galactosidase; parameters: species or system Coffea arabica
# Mus musculus [26] = experiment: Hypoglycemic effect in maltose treated mouse C57BL-6J assessed as reduction in postprandial blood glucose level at 2 mg/kg, po measured after 15 mins; type: functional; parameters: scale not given: the % may be the effect or the level left; settings: 0.25 h
# [27] = Toxicity in C57BL-6J mouse assessed as increase in body weight at 2 mg/kg, po measured after 10 days; type: organism-based; settings: in vivo, 240 h, time 10 day
# Aspergillus niger [28] = experiment: Potency index, ratio of DNJ-1 Kd to test compound Kd for inhibition of Aspergillus niger alpha-glucosidase
# [29] = Toxicity in C57BL-6J mouse assessed as kidney pathological change at 2 mg/kg, po measured after 10 days by hematoxylin and eosin staining analysis; type: organism-based; settings: in vivo, 240 h, time 10 day
# [30] = Inhibition of Helix pomatia beta-mannosidase
Kd (Alpha-mannosidase [1]) [µM],Ratio (Aspergillus niger [3]),Kd [5] [µM],Ratio [6],Kd [7],Ki [10] [µM],Ratio (Coffea arabica),Stability [14],IC50 [15] [µM],inhibition (Homo sapiens),Stability [17],Kd [30],Compound,Activity [2],Activity [4],Activity [8],Activity [9],Activity (Mus musculus [11]),Activity (Mus musculus [12]) [%],Kd [16],Activity (Mus musculus [26]) [%],further results
0.12,1.5,13.1,876,Not Active,13.1,9.7,Stable,11.6,Dose-Dependent Effect,Stable,Not Active,O=C1c2cc(Cl)c3c4c(Oc5ccc(OCc6cn(CCCN7C[C@H](O)[C@@H](O)[C@H](O)[C@H]7CO)nn6)cc5)cc5c6c(cc(Oc7ccc(OCc8cn(CCCN9C[C@H](O)[C@@H](O)[C@H](O)[C@H]9CO)nn8)cc7)c(c7c(Cl)cc(c2c37)C(=O)N1Cc1cn(CCCN2C[C@H](O)[C@@H](O)[C@H](O)[C@H]2CO)nn1)c64)C(=O)N(Cc1cn(CCCN2C[C@H](O)[C@@H](O)[C@H](O)[C@H]2CO)nn1)C5=O,Non-Toxic,Non-Toxic,Non-Toxic,Non-Toxic,Dose-Dependent Effect,29.2,Not Active,41.3,Activity (Mus musculus [13]): 20.8%; Activity [18]: Toxic; Ratio [19]: 2310; Activity (Mus musculus [20]): 15.2%; Ki (Alpha-mannosidase [21]): 0.12 µM; Activity (Mus musculus [22]): 22.4%; Activity (Mus musculus [23]): 37.4%; Ki [24]: 1.43 µM; Kd ([25]; read-out: Kd): 1.43 µM; Activity [27]: Non-Toxic; Ratio (Aspergillus niger [28]): 4.7; Activity [29]: Non-Toxic
277,,61.6,,Not Active,,,,,,,Not Active,OCc1cn(CCCN2C[C@H](O)[C@@H](O)[C@H](O)[C@H]2CO)nn1,,,,,,,Not Active,,Kd [25]: Not Active
0.017,1.4,14.7,6180,Not Active,14.7,7.2,Stable,14.4,Dose-Dependent Effect,Stable,Not Active,O=C1c2cc(Cl)c3c4c(Cl)cc5c6c(cc(Oc7ccc(OCc8cn(CCCN9C[C@H](O)[C@@H](O)[C@H](O)[C@H]9CO)nn8)cc7)c(c7c(Oc8ccc(OCc9cn(CCCN%10C[C@H](O)[C@@H](O)[C@H](O)[C@H]%10CO)nn9)cc8)cc(c2c37)C(=O)N1Cc1cn(CCCN2C[C@H](O)[C@@H](O)[C@H](O)[C@H]2CO)nn1)c64)C(=O)N(Cc1cn(CCCN2C[C@H](O)[C@@H](O)[C@H](O)[C@H]2CO)nn1)C5=O,Non-Toxic,Non-Toxic,Non-Toxic,Non-Toxic,Dose-Dependent Effect,11.3,Not Active,22.2,Activity [18]: Toxic; Ratio [19]: 16300; Ki (Alpha-mannosidase [21]): 0.017 µM; Activity (Mus musculus [22]): 4%; Ki [24]: 1.03 µM; Kd ([25]; read-out: Kd): 1.93 µM; Activity [27]: Non-Toxic; Ratio (Aspergillus niger [28]): 4.2; Activity [29]: Non-Toxic
,,20.6,,Not Active,,,,,,,Not Active,OCCN1C[C@H](O)[C@@H](O)[C@H](O)[C@H]1CO [MIGLITOL],,,,,,27.3,Not Active,40.4,Activity (Mus musculus [23]): 36.6%; Kd [25]: Not Active
